Data published in ChEMBL document CHEMBL4308841, “Synthesis, in vitro antiproliferative activity, and kinase inhibitory effects of pyrazole-containing diarylureas and diarylamides” (Eur J Med Chem, 2018).

Key:
OVCAR-8 = test: Growth inhibition of human OVCAR8 cells incubated for 48 hrs by sulforhodamine B assay; assay type: functional, cell-based; settings: OVCAR-8, 48 h
ACHN [1] = test: Growth inhibition of human ACHN cells assessed as cell growth at 0.1 uM incubated for 48 hrs by sulforhodamine B assay relative to control; assay type: functional; settings: read-out: Activity
MDA-MB-435 = test: Growth inhibition of human MDA-MB-435 cells assessed as cell growth at 1 uM incubated for 48 hrs by sulforhodamine B assay relative to control; assay type: functional; settings: MDA-MB-435, 48 h, read-out: Activity
SF-268 = test: Growth inhibition of human SF268 cells assessed as cell growth at 0.01 uM incubated for 48 hrs by sulforhodamine B assay relative to control; assay type: functional; settings: SF-268, 48 h, read-out: Activity
RPMI-8226 [2] = test: Growth inhibition of human RPMI8226 cells assessed as cell growth at 0.01 uM incubated for 48 hrs by sulforhodamine B assay relative to control; assay type: functional; settings: RPMI-8226, 48 h, read-out: Activity
ACHN [3] = test: Growth inhibition of human ACHN cells assessed as cell growth at 1 uM incubated for 48 hrs by sulforhodamine B assay relative to control; assay type: functional; settings: read-out: Activity
UO-31 [4] = test: Growth inhibition of human UO31 cells assessed as cell growth at 0.1 uM incubated for 48 hrs by sulforhodamine B assay relative to control; assay type: functional; settings: UO-31, 48 h, read-out: Activity
NCI-H460 [5] = test: Growth inhibition of human NCI-H460 cells assessed as cell growth at 100 uM incubated for 48 hrs by sulforhodamine B assay relative to control; assay type: functional; settings: NCI-H460, 48 h, read-out: Activity
NCI-H322M [6] = test: Growth inhibition of human NCI-H322M cells incubated for 48 hrs by sulforhodamine B assay; assay type: functional, cell-based
MCF7 = test: Growth inhibition of human MCF7 cells assessed as cell growth at 0.1 uM incubated for 48 hrs by sulforhodamine B assay relative to control; assay type: functional; settings: MCF7, 48 h, read-out: Activity
786-0 = test: Growth inhibition of human 786-0 cells assessed as cell growth at 100 uM incubated for 48 hrs by sulforhodamine B assay relative to control; assay type: functional; settings: 786-0, 48 h, read-out: Activity
HCT-116 = test: Growth inhibition of human HCT116 cells assessed as cell growth at 1 uM incubated for 48 hrs by sulforhodamine B assay relative to control; assay type: functional; settings: HCT-116, 48 h, read-out: Activity
HCT-15 = test: Growth inhibition of human HCT15 cells assessed as cell growth at 0.01 uM incubated for 48 hrs by sulforhodamine B assay relative to control; assay type: functional; settings: HCT-15, 48 h, read-out: Activity
HOP-62 = test: Growth inhibition of human HOP62 cells assessed as cell growth at 0.1 uM incubated for 48 hrs by sulforhodamine B assay relative to control; assay type: functional; settings: HOP-62, 48 h, read-out: Activity
CCRF-CEM = test: Growth inhibition of human CCRF-CEM cells assessed as cell growth at 0.1 uM incubated for 48 hrs by sulforhodamine B assay relative to control; assay type: functional; settings: read-out: Activity
RPMI-8226 [7] = test: Growth inhibition of human RPMI8226 cells incubated for 48 hrs by sulforhodamine B assay; assay type: functional, cell-based; settings: RPMI-8226, 48 h
HCC 2998 = test: Growth inhibition of human HCC2998 cells assessed as cell growth at 0.01 uM incubated for 48 hrs by sulforhodamine B assay relative to control; assay type: functional; settings: HCC 2998, 48 h, read-out: Activity
NCI-H322M [8] = test: Growth inhibition of human NCI-H322M cells assessed as cell growth at 1 uM incubated for 48 hrs by sulforhodamine B assay relative to control; assay type: functional; settings: read-out: Activity
NCI-H460 [9] = test: Growth inhibition of human NCI-H460 cells assessed as cell growth at 1 uM incubated for 48 hrs by sulforhodamine B assay relative to control; assay type: functional; settings: NCI-H460, 48 h, read-out: Activity
NCI-H460 [10] = test: Growth inhibition of human NCI-H460 cells assessed as cell growth at 0.01 uM incubated for 48 hrs by sulforhodamine B assay relative to control; assay type: functional; settings: NCI-H460, 48 h, read-out: Activity
NCI-H522 = test: Growth inhibition of human NCI-H522 cells assessed as cell growth at 1 uM incubated for 48 hrs by sulforhodamine B assay relative to control; assay type: functional; settings: NCI-H522, 48 h, read-out: Activity
SK-OV-3 = test: Growth inhibition of human SKOV3 cells assessed as cell growth at 100 uM incubated for 48 hrs by sulforhodamine B assay relative to control; assay type: functional; settings: SK-OV-3, 48 h, read-out: Activity
Malme-3M = test: Growth inhibition of human MALME-3M cells incubated for 48 hrs by sulforhodamine B assay; assay type: functional, cell-based
CAKI-1 [11] = test: Growth inhibition of human Caki1 cells incubated for 48 hrs by sulforhodamine B assay; assay type: functional, cell-based; settings: CAKI-1, 48 h
SF-295 = test: Growth inhibition of human SF295 cells incubated for 48 hrs by sulforhodamine B assay; assay type: functional, cell-based; settings: SF-295, 48 h
MDA-MB-231 = test: Growth inhibition of human MDA-MB-231 cells assessed as cell growth at 1 uM incubated for 48 hrs by sulforhodamine B assay relative to control; assay type: functional; settings: MDA-MB-231, 48 h, read-out: Activity
UO-31 [12] = test: Growth inhibition of human UO31 cells assessed as cell growth at 100 uM incubated for 48 hrs by sulforhodamine B assay relative to control; assay type: functional; settings: UO-31, 48 h, read-out: Activity
CAKI-1 [13] = test: Growth inhibition of human Caki1 cells assessed as cell growth at 100 uM incubated for 48 hrs by sulforhodamine B assay relative to control; assay type: functional; settings: CAKI-1, 48 h, read-out: Activity
[14] = read-out: LC50 (the source's name)
[15] = read-out: pLC50 (the source's name) (converted)

Work on O=C(Nc1cccc(-n2cc(-c3ccncc3)c(-c3cc(O)cc(Cl)c3)n2)c1)c1cc(C(F)(F)F)cc(C(F)(F)F)c1 yielded a GI50 (OVCAR-8; read-out: GI50) of 3.58 µM, a CC50 (OVCAR-8; [14]) greater than 100 µM and a TGI (OVCAR-8; read-out: TGI) greater than 100 µM. The GI50 (OVCAR-8; read-out: pGI50 (converted)) was 3.55 µM, the CC50 (OVCAR-8; [15]) was greater than 100 µM and the TGI (OVCAR-8; read-out: pTGI (converted)) was greater than 100 µM. For the same compound, the growth at 0.1 µM (ACHN [1]) was 98%, the growth at 1 µM (MDA-MB-435) was 88% and the growth at 0.01 µM (SF-268) was 92%. It also gave a growth at 0.01 µM (RPMI-8226 [2]) of 105%, a growth at 1 µM (ACHN [3]) of 99% and a growth at 0.1 µM (UO-31 [4]) of 70%. The growth at 100 µM (NCI-H460 [5]) was 1%, the GI50 (NCI-H322M [6]; read-out: GI50) was 7.92 µM and the CC50 (NCI-H322M [6]; [14]) was greater than 100 µM. It also gave a TGI (NCI-H322M [6]; read-out: TGI) greater than 100 µM, a GI50 (NCI-H322M [6]; read-out: pGI50 (converted)) of 7.94 µM and a CC50 (NCI-H322M [6]; [15]) greater than 100 µM. The TGI (NCI-H322M [6]; read-out: pTGI (converted)) was greater than 100 µM, the growth at 0.1 µM (MCF7) was 92% and the growth at 100 µM (786-0) was -28%. The growth at 1 µM (HCT-116) was 59%, the growth at 0.01 µM (HCT-15) was 96% and the growth at 0.1 µM (HOP-62) was 100%. For the same compound, the growth at 0.1 µM (CCRF-CEM) was 97%, the IC50 (RPMI-8226 [7]) was 2.5 µM and the GI50 (RPMI-8226 [7]; read-out: GI50) was 2.5 µM. The CC50 (RPMI-8226 [7]; [14]) was greater than 100 µM, the TGI (RPMI-8226 [7]; read-out: TGI) was 12.7 µM and the GI50 (RPMI-8226 [7]; read-out: pGI50 (converted)) was 2.51 µM. It also gave a CC50 (RPMI-8226 [7]; [15]) greater than 100 µM, a TGI (RPMI-8226 [7]; read-out: pTGI (converted)) of 12.6 µM and a growth at 0.01 µM (HCC 2998) of 94%. It also gave a growth at 1 µM (NCI-H322M [8]) of 90%, a growth at 1 µM (NCI-H460 [9]) of 92% and a growth at 0.01 µM (NCI-H460 [10]) of 101%. For the same compound, the growth at 1 µM (NCI-H522) was 54%, the growth at 100 µM (SK-OV-3) was 30% and the GI50 (Malme-3M; read-out: GI50) was 3.59 µM. The CC50 (Malme-3M; [14]) was greater than 100 µM, the TGI (Malme-3M; read-out: TGI) was 94.4 µM and the GI50 (Malme-3M; read-out: pGI50 (converted)) was 3.72 µM. The CC50 (Malme-3M; [15]) was greater than 100 µM, the TGI (Malme-3M; read-out: pTGI (converted)) was 95.5 µM and the GI50 (CAKI-1 [11]; read-out: GI50) was 3.57 µM. It also gave a CC50 (CAKI-1 [11]; [14]) greater than 100 µM, a TGI (CAKI-1 [11]; read-out: TGI) greater than 100 µM and a GI50 (CAKI-1 [11]; read-out: pGI50 (converted)) of 3.63 µM. It also gave a CC50 (CAKI-1 [11]; [15]) greater than 100 µM, a TGI (CAKI-1 [11]; read-out: pTGI (converted)) greater than 100 µM and a GI50 (SF-295; read-out: GI50) of 2.37 µM. It also gave a CC50 (SF-295; [14]) greater than 100 µM, a TGI (SF-295; read-out: TGI) of 71.5 µM and a GI50 (SF-295; read-out: pGI50 (converted)) of 2.4 µM. For the same compound, the CC50 (SF-295; [15]) was greater than 100 µM, the TGI (SF-295; read-out: pTGI (converted)) was 7.08 µM and the growth at 1 µM (MDA-MB-231) was 70%. It also gave a growth at 100 µM (UO-31 [12]) of 13% and a growth at 100 µM (CAKI-1 [13]) of 7%.
